The nature of this data set: Compression tests of solid excipient (ASTM D695-10). It counts as physicochemical. As to conditions: compression-molded sample. The method, then:
Compression tests were performed on pure PEG and PEO specimen. The ASTM standard test method for compressive properties of rigid plastics, ASTM D695-10, was used as the protocol to execute compression tests. The testing machine was a Zwick Roell Z2.5 with a 2.5 kN load cell (Zwick GmbH & Co. KG, Ulm, Germany), equipped with compression platens. A speed of 1.3 mm/min was applied for the platens to move relatively towards each other.

This passage reports Compressive strength and Strain results from patent US20160184230A1, “MELT-PROCESSED POLYMERIC CELLULAR DOSAGE FORM” (priority 2014, published 2016).

Compound `OC[C@@H](O)[C@@H](O)[C@H](O)[C@H](O)CO` [Mannitol] registered a Compressive strength of 0.8 MPa and a Strain at fracture of under 0.02.
